Reference: patent publication US11401271B2, “Fused heterocyclic compound, pyrazole-ring-containing fused heterocyclic compound, agricultural composition containing thereof, and method of using the composition” (SOUTH CHINA AGRICULTURAL UNIVERSITY, priority 2017, dated 2022)
Where two headings read alike, the source gives them in different places.

Assays:
Assay in all cases: whole plant or invertebrate
Type in all cases: in vivo
Plutella xylostella = conditions: for mortality at 500 ppm: Plutella xylostella, read-out: Plutella xylostella Mortality (%) 500 ppm
Method: (1) Insecticidal Activity on 2nd-Instar Larvae of Plutella xylostella.
Plutella xylostella (L.) is a lepidoptera pest with a chewing mouthpart and is a common vegetable pest. The 2nd-instar larvae of Plutella xylostella were used as test objects and tested by using a leaf immersion feeding method.
(§1) Operation process: Samples were weighed accurately, and respectively added with 200 μL of dimethyl sulfoxide to prepare 10 g/L mother liquor which was diluted into a concentration of 500 ppm with an aqueous solution containing 0.05% of Tween-80 during the test. A hole puncher with a diameter of 1.0 cm was used to make cleaned cabbage leaves into leaf discs. The leaf discs were immersed in a liquid medicine, taken out after 5 seconds, air-dried naturally, and transferred into a clean vessel. About 35 2nd-instar larvae of Plutella xylostella were put into the vessel and fed at a constant temperature of 28° C. Each concentration was repeated 3 times, and an aqueous solution containing 0.05% of Tween-80 was used as a control group. After being treated for 24 hours, a number of dead Plutella xylostella was counted, and a mortality (%) was calculated according to a formula that mortality (%)=(number of live larvae in the control group−number of treated live larvae)/number of live larvae in the control group*100%.

Aphis craccivora = conditions: for Aphis craccivora Mortality (%): immersion 5 seconds, counted after 24 hours; for mortality at 500 ppm: Aphis craccivora, read-out: Aphis craccivora Mortality (%) 500 ppm
Method: (3) Insecticidal Activity on Aphid Adults.
Aphid is a homoptera pest with a piercing-sucking mouthpart and is a common vegetable pest. Aphis craccivora were taken as test objects and tested by using an impregnation method.
Operation process: Samples were weighed accurately, and respectively added with 200 μL of dimethyl sulfoxide to prepare 10 g/L mother liquor which was diluted into a concentration of 500 ppm with an aqueous solution containing 0.05% of Tween-80 during the test. After the wingless Aphis craccivora adults stably sucked on bean sprouts, the wingless Aphis craccivora adults together with the bean sprouts were immersed into a liquid medicine with a concentration of 500 ppm, taken out after 5 seconds, air-dried naturally, transferred into a clean vessel, and fed at a constant temperature of 23° C. Each concentration was repeated 3 times, and an aqueous solution containing 0.05% of Tween-80 was used as a control group. After being treated for 24 hours, a number of dead Aphis craccivora was counted, and a mortality (%) was calculated according to a formula that mortality (%)=(number of live Aphis craccivora in the control group−number of treated live Aphis craccivora)/number of live Aphis craccivora in the control group*100%.

Spodoptera exigua = conditions: for mortality at 500 ppm: Spodoptera exigua, read-out: Spodoptera exigua Mortality (%) 500 ppm
Method: (2) Insecticidal Activity on 2nd-Instar Larvae of Spodoptera exigua.
Spodoptera exigua is a lepidoptera pest with a chewing mouthpart and is a common vegetable pest. The 2nd-instar larvae of Spodoptera exigua were used as test objects and tested by using a leaf immersion feeding method.
as §1, with “μL,” for “μL”, “2nd -instar” for “2nd-instar”, “Spodoptera exigua” for “Plutella xylostella”, “group −number” for “group−number”, “group * 100%.” for “group*100%.”

Solenopsis invicta = conditions: for mortality at 100 ppm: Solenopsis invicta
Method: (4) Insecticidal Activity on Solenopsis invicta.
As a hymenoptera pests and a social insect, Solenopsis invicta is one of the most destructive invasive organisms. Solenopsis invicta were used as test objects and tested by using a water test tube poison-feeding method.
Operation process: Samples were weighed accurately, and respectively added with 200 μL of dimethyl sulfoxide to prepare 10 g/L mother liquor which was diluted into a concentration of 100 ppm with a mixed aqueous solution containing 0.05% of Tween-80 and 5% of honey during the test. […] The raising test tube was placed in a raising box horizontally, and a small amount of ham sausages were added to the raising test tube as food to raise the Solenopsis invicta at a constant temperature of 25° C. After being treated for 24 hours and 72 hours, a number of live Solenopsis invicta and a number of dead Solenopsis invicta were counted, and a mortality (%) was calculated according to a formula that mortality (%)=(number of live Solenopsis invicta in the control group−number of treated live Solenopsis invicta)/number of live Solenopsis invicta in the control group*100%.

[1] = 500 ppm, 2nd-instar larvae, leaf immersion feeding
[2] = 100 ppm, 24 h, water test tube poison-feeding
[3] = 100 ppm, 72 h, water test tube poison-feeding
[4] = 24 h, read-out: Solenopsis invicta Mortality (%) 100 ppm 24 h, 100 ppm, 24 h, water test tube poison-feeding
[5] = 72 h, read-out: Solenopsis invicta Mortality (%) 100 ppm 72 h, 100 ppm, 72 h, water test tube poison-feeding
[6] = 500 ppm, wingless adults, impregnation method, 24 hours
[7] = 500 ppm, 2nd-instar larvae, leaf immersion feeding, 24 hours
[8] = 100 ppm, 24 h, water test tube poison-feeding, read-out: Solenopsis invicta Mortality (%) 100 ppm 24 h
[9] = 100 ppm, 72 h, water test tube poison-feeding, read-out: Solenopsis invicta Mortality (%) 100 ppm 72 h

Row | Molecule | mortality at 500 ppm (Plutella xylostella) [%] | mortality at 500 ppm (Aphis craccivora; 24 h) [%] | mortality at 500 ppm (Spodoptera exigua; 24 h) [%] | mortality at 100 ppm (Solenopsis invicta; [4]) [%] | mortality at 100 ppm (Solenopsis invicta; [5]) [%] | other results
1 | 9-chloro-2-cyano-3-cyclohexanesulfinyl-5-(2′2-dimethoxy)-7-trifluoromethyl-4,5-dihydropyrazole[1,5-α]quinazoline-5-methyl formate [d-12] | – | – | – | – | – | Plutella xylostella Mortality (%) (Plutella xylostella; [1]): 86%; Aphis craccivora Mortality (%) (Aphis craccivora; 500 ppm, wingless adults): 100%; Spodoptera exigua Mortality (%) (Spodoptera exigua; [1]): 96%; Solenopsis invicta Mortality (%) 24 h (Solenopsis invicta; [2]): 20%; Solenopsis invicta Mortality (%) 72 h (Solenopsis invicta; [3]): 100%
2 | COC(=O)CC1(C(=O)OC)Nc2c([S+]([O-])C(F)(F)F)c(C#N)nn2-c2cc(C(F)(F)F)cc(Cl)c21 (racemic) [c-8] | – | – | – | – | – | Plutella xylostella Mortality (%) (Plutella xylostella; [1]): 100%; Aphis craccivora Mortality (%) (Aphis craccivora; 500 ppm, wingless adults): 100%; Spodoptera exigua Mortality (%) (Spodoptera exigua; [1]): 100%; Solenopsis invicta Mortality (%) 24 h (Solenopsis invicta; [2]): 20%; Solenopsis invicta Mortality (%) 72 h (Solenopsis invicta; [3]): 100%
3 | CC1(C)Nc2c(Br)c(C#N)nn2-c2ccccc21 [Compound A2] | 97 | 100 | 100 | 19 | 93 | –
4 | CN1c2c(Br)c(C#N)nn2-c2ccccc2C1(C)C [Compound A3] | 90 | 100 | 100 | 25 | 100 | –
5 | CNC(=O)c1nn2c(c1Br)NC(C)(C)c1ccccc1-2 [Compound A6] | 100 | 100 | 100 | 44 | 100 | –
6 | CCSc1c(C#N)nn2c1NC(C)(C)c1ccccc1-2 [Compound A9] | 100 | 100 | 100 | 24 | 100 | –
7 | Nc1ccc2c(c1)-n1nc(C(F)(F)F)c(Br)c1NC2(C(F)(F)F)C(F)(F)F [Compound A11] | 100 | 100 | 100 | 34 | 100 | –
8 | CC[S+]([O-])c1c(C(F)(F)F)nn2c1NC(C(F)(F)F)(C(F)(F)F)c1ccc(N)cc1-2 (stereo not shown) [Compound A14] | 100 | 100 | 90 | 26 | 93 | –
9 | CC(C)(C)Nc1c(C#N)nn2c1NC(C)(C)c1ccccc1-2 [Compound A16] | 86 | 100 | 100 | 20 | 87 | –
10 | CC(=O)Nc1c(C#N)nn2c1NC(C)(C)c1ccccc1-2 [Compound A17] | 100 | 100 | 100 | 34 | 100 | –
11 | CC1(C)Nc2c(NC(=O)Oc3ccccc3)c(C#N)nn2-c2ccccc21 [Compound A18] | – | – | – | – | – | mortality at 500 ppm (Plutella xylostella; [1]): 100%; mortality at 500 ppm (Aphis craccivora; [6]): 100%; mortality at 500 ppm (Spodoptera exigua; [7]): 100%; mortality at 100 ppm (Solenopsis invicta; [8]): 44%; mortality at 100 ppm (Solenopsis invicta; [9]): 100%
12 | Cc1ccc(S(=O)(=O)Nc2c(C#N)nn3c2NC(C)(C)c2ccccc2-3)cc1 [Compound A20] | 100 | 100 | 90 | 26 | 93 | –
13 | N#Cc1cnn2c1NC(N)(CN)c1ccc(Cl)cc1-2 (stereo not shown) [Compound A24] | – | – | – | – | – | Plutella xylostella Mortality (%) 500 ppm (Plutella xylostella; in vivo): 100%; Aphis craccivora Mortality (%) 500 ppm (Aphis craccivora; in vivo): 100%; Spodoptera exigua Mortality (%) 500 ppm (Spodoptera exigua; in vivo): 100%; Solenopsis invicta Mortality (%) 100 ppm 24 h (Solenopsis invicta; in vivo): 44%; Solenopsis invicta Mortality (%) 100 ppm 72 h (Solenopsis invicta; in vivo): 100%
14 | CSc1nn2c(c1C#N)NC(F)(C(F)(F)F)c1ccccc1-2 (stereo not shown) [Compound A25] | 100 | 100 | 100 | 38 | 100 | –
15 | CSc1nn2c(c1C(N)=O)NC(F)(C(F)(F)F)c1ccccc1-2 (stereo not shown) [Compound A28] | 100 | 100 | 90 | 29 | 97 | –
16 | CSc1nn2c(c1C(=O)N(C)C)NC(F)(C(F)(F)F)c1ccccc1-2 (stereo not shown) [Compound A29] | 100 | 100 | 100 | 26 | 95 | –
17 | CSc1nn2c(c1C#N)N(C(=O)Oc1ccccc1)C(F)(C(F)(F)F)c1ccccc1-2 (stereo not shown) [Compound A31] | – | – | – | – | – | mortality at 500 ppm (Plutella xylostella; [1]): 100%; mortality at 500 ppm (Aphis craccivora; [6]): 100%; mortality at 500 ppm (Spodoptera exigua; [7]): 100%; mortality at 100 ppm (Solenopsis invicta; [8]): 20%; mortality at 100 ppm (Solenopsis invicta; [9]): 100%
18 | CSc1nn2c(c1C#N)N(S(C)(=O)=O)C(F)(C(F)(F)F)c1ccccc1-2 (stereo not shown) [Compound A33] | 100 | 100 | 100 | 24 | 100 | –
19 | C=CCN1c2c(C#N)c(SC)nn2-c2ccccc2C1(F)C(F)(F)F (stereo not shown) [Compound A34] | 96 | 100 | 100 | 28 | 97 | –
20 | CSc1nn2c(c1C#N)N(CCBr)C(F)(C(F)(F)F)c1ccccc1-2 (stereo not shown) [Compound A35] | 100 | 100 | 100 | – | – | mortality at 100 ppm (Solenopsis invicta; 24 h, read-out: Solenopsis invicta Mortality (%) 100 ppm 24 h): 31%; mortality at 100 ppm (Solenopsis invicta; 72 h, read-out: Solenopsis invicta Mortality (%) 100 ppm 72 h): 99%
21 | CCNc1cc2n(n1)-c1cnccc1C(F)(CC(F)(F)F)N2 (stereo not shown) [Compound A37] | 100 | 100 | 100 | 20 | 100 | –
22 | C=CCN(CC)c1cc2n(n1)-c1cnccc1C(F)(CC(F)(F)F)N2 (stereo not shown) [Compound A38] | 100 | 100 | 90 | 26 | 93 | –
23 | CC(=O)Nc1cc2n(n1)-c1cnccc1C(F)(CC(F)(F)F)N2 (stereo not shown) [Compound A39] | 100 | 100 | 100 | 24 | 100 | –
